We go through 24 molecules from patent publication US20230312491A1, “N-SUBSTITUTED 4-(5-PHENYL-1,3,4-OXADIAZOL-2-YL)ANILINE FOR THE TREATMENT AND PROPHYLAXIS OF HEPATITIS B VIRUS INFECTION” (priority 2020, published 2023).

What all share (format): cell-based
One data set relates to HBsAg. Put plainly: PHH natural infection assay, HBsAg (alphalisa). The conditions noted are these: Hepatitis B virus, Hepatocyte, 72 h, read-out: HBsAg IC50. How it is done:
(§1) Detailed procedures regarding primary human hepatocyte (PHH) HBV natural infection assay are described as below. One tube of frozen PHH (10 million cells) is thawed in 37° C. water bath and then transferred to 20 mL of PHH thawing medium (Sigma, InVitroGRO HT Medium, Cat. S03319) with gently mixing. The cells were then centrifuged at […] for 5 min, the supernatant was discarded and the tube was refilled with 25 mL of PHH plating medium (Sigma, InVitroGRO CP Medium, Cat. S03317). The tube was shaken very gently to re-suspend all cells, and then 50 µl of cells were transferred to each well 384-well collagen I coated plate with appropriate liquid handling equipment, e.g. Integra VIAFLO384 or Agilent Bravo. The cells were then cultured for 24 hours in a cell incubator. For HBV infection, after PHH attachment on the culture plate, the plating medium was removed and replenished with PHH culture medium containing HBV virus. The PHH culture medium was prepared with Dulbecco’s Modified Eagle Medium (DMEM)/F12 (1: 1 in volume ratio) containing 10% fetal bovine serum (Gibco, Cat.10099141), 5 ng/mL human epidermal growth factor (Gibco, Cat.PHG0311L), 20 ng/mL dexamethasone (Sigma, Cat.D4902-100 mg), 250 ng/mL human recombinant insulin (Gibco, Cat.41400045) and 100 U/mL penicillin. HBV virus at 200 genome equivalent (GE) per cell with 4% PEG8000 (Sigma, Cat.P1458) containing culture medium were added to the PHH culture medium for infection. The cells were then cultured for 24 hours in cell incubator. Then the cell culture supernatant was removed. The HBV-infected PHH were cultured with sandwich culture method with PHH culture medium containing 1% DMSO and 0.25 mg/mL matrix gel for 72 hours. The supernatant was then refreshed with PHH culture medium containing different concentrations of testing compounds for two times with 72-hour interval. At the end of treatment, the supernatant was collected for viral markers measurements, including HBsAg, HBeAg, HBV DNA and cytotoxicity. HBsAg and HBeAg were detected using alphalisa method using their specific antibodies. For HBV DNA detection, HBV DNA Quantitative Fluorescence Diagnostic Kit (Sansure Biotech Inc.) was used following the manufacture’s protocol. Cytotoxicity was determined using Cell Counting Kit-8 (CCK8, Dojindo Molecular Technologies, Inc.).
(§2) The compounds of the present invention were tested for their capacity to inhibit HBsAg and HBeAg as described herein.
(In Alpha technology, singlet oxygen from a donor bead excites a nearby acceptor bead.)

In another data set the test system is HBeAg. In words: PHH natural infection assay, HBeAg (alphalisa). The conditions noted are these: Hepatitis B virus, Hepatocyte, 72 h, read-out: HBeAg IC50. As for the experimental part:
as §1, §2

The nature of data set [1]: PHH natural infection assay, cytotoxicity (Cell Counting Kit-8). The following applies: HBV-infected primary human hepatocytes, CCK8. As for the experimental part:
as §1

Each structure is given as a SMILES string. pIC50: −log10 of the molar value.

In the case of `CCC(=O)Nc1ccc(-c2nnc(-c3ccccc3)o2)cc1` [Example 1, N-[4-(5-phenyl-1,3,4-oxadiazol-2-yl)phenyl]propanamide], the pIC50 in the data set with HBsAg was 5.92; in the data set with HBeAg, 5.31. In data set [1], this molecule displayed a 50% cytotoxic concentration (CC50) at 144 h of over 100000 nM.

On to `CCCC(=O)Nc1ccc(-c2nnc(-c3ccccc3)o2)cc1` [Example 2, N-[4-(5-phenyl-1,3,4-oxadiazol-2-yl)phenyl]butanamide], for which the values for the pIC50 with HBsAg and in the data set on HBeAg were 5.52 and 4.37, respectively. This molecule came in with a CC50 at 144 h in data set [1] of over 100000 nM.

`CCCCC(=O)Nc1ccc(-c2nnc(-c3ccccc3)o2)cc1` [Example 3, N-[4-(5-phenyl-1,3,4-oxadiazol-2-yl)phenyl]pentanamide]: the results for the pIC50 in the data set with HBsAg and in the data set with HBeAg were 5.62 and 5.52, respectively. Further, in data set [1], the CC50 at 144 h is over 100000 nM.

Consider `CC(C)CC(=O)Nc1ccc(-c2nnc(-c3ccccc3)o2)cc1` [Example 4, 3-methyl-N-[4-(5-phenyl-1,3,4-oxadiazol-2-yl)phenyl]butanamide], for which the pIC50 with HBsAg is 5.55; with HBeAg it was 5.46. The same molecule displayed a CC50 at 144 h in data set [1] of over 100000 nM.

For `COCCC(=O)Nc1ccc(-c2nnc(-c3ccccc3)o2)cc1` [Example 5, 3-methoxy-N-[4-(5-phenyl-1,3,4-oxadiazol-2-yl)phenyl]propanamide], the figures for the pIC50 with HBsAg and with HBeAg were 6.23 and 6.16, respectively. Moreover, the CC50 at 144 h in data set [1] is over 100000 nM.

As to `CC(C)C(=O)Nc1ccc(-c2nnc(-c3ccccc3)o2)cc1` [Example 6, 2-methyl-N-[4-(5-phenyl-1,3,4-oxadiazol-2-yl)phenyl]propanamide], the negative logarithm of the IC50 (pIC50) is 5.88 with HBsAg and 5.66 in the data set with HBeAg. The half-maximal cytotoxic concentration (CC50) at 144 h in data set [1] is over 100000 nM.

For `O=C(Nc1ccc(-c2nnc(-c3ccccc3)o2)cc1)C1CCCC1` [Example 7, N-[4-(5-phenyl-1,3,4-oxadiazol-2-yl)phenyl]cyclopentanecarboxamide], the results for the negative logarithm of the IC50 (pIC50) with HBsAg and in the data set with HBeAg were 6.29 and 6.11, respectively. In data set [1], the CC50 at 144 h was over 100000 nM.

On to `O=C(Nc1ccc(-c2nnc(-c3ccccc3)o2)cc1)c1ccccc1F` [Example 8, 2-fluoro-N-[4-(5-phenyl-1,3,4-oxadiazol-2-yl)phenyl]benzamide], for which the pIC50 is 5.38 in the data set on HBsAg and 5.30 with HBeAg. The CC50 at 144 h in data set [1] is over 100000 nM.

For `O=C(Nc1ccc(-c2nnc(-c3ccccc3)o2)cc1)c1ccccc1Cl` [Example 9, 2-chloro-N-[4-(5-phenyl-1,3,4-oxadiazol-2-yl)phenyl]benzamide], the pIC50 in the data set on HBsAg was 5.08; with HBeAg, 5.77. This molecule also had a CC50 at 144 h in data set [1] of over 100000 nM.

For `Cc1cc(F)cc(C(=O)Nc2ccc(-c3nnc(-c4ccccc4)o3)cc2)c1` [Example 10, 3-fluoro-5-methyl-N-[4-(5-phenyl-1,3,4-oxadiazol-2-yl)phenyl]benzamide], the figures for the negative logarithm of the IC50 (pIC50) in the data set on HBsAg and in the data set with HBeAg were 5.79 and 5.66, respectively. In data set [1], this molecule registered a CC50 at 144 h of over 100000 nM.

Regarding `Cc1cc(Cl)cc(C(=O)Nc2ccc(-c3nnc(-c4ccccc4)o3)cc2)c1` [Example 11, 3-chloro-5-methyl-N-[4-(5-phenyl-1,3,4-oxadiazol-2-yl)phenyl]benzamide], the pIC50 is 5.19 in the data set on HBsAg and 4.90 in the data set on HBeAg. The molecule further showed a CC50 at 144 h in data set [1] of over 100000 nM.

`O=C(Nc1ccc(-c2nnc(-c3ccccc3)o2)cc1)c1ccc(F)cc1` [Example 12, 4-fluoro-N-[4-(5-phenyl-1,3,4-oxadiazol-2-yl)phenyl]benzamide]: the negative logarithm of the IC50 (pIC50) was 5.21 in the data set with HBsAg and 5.20 in the data set on HBeAg. The molecule also showed a half-maximal cytotoxic concentration (CC50) at 144 h in data set [1] of over 100000 nM.

For the molecule `O=C(Nc1ccc(-c2nnc(-c3ccccc3)o2)cc1)c1ccc(Cl)cc1` [Example 13, 4-chloro-N-[4-(5-phenyl-1,3,4-oxadiazol-2-yl)phenyl]benzamide], the negative logarithm of the IC50 (pIC50) in the data set on HBsAg was 5.25; with HBeAg it was 5.35. This molecule also registered a CC50 at 144 h in data set [1] of over 100000 nM.

For the molecule `O=C(Nc1ccc(-c2nnc(-c3ccccc3)o2)cc1)c1ccccc1OC(F)(F)F` [Example 14, N-[4-(5-phenyl-1,3,4-oxadiazol-2-yl)phenyl]-2-(trifluoromethoxy)benzamide], the pIC50 in the data set with HBsAg was 5.44; in the data set on HBeAg it was 5.54. Also, the CC50 at 144 h in data set [1] was over 100000 nM.

Consider `O=C(Nc1ccc(-c2nnc(-c3ccccc3)o2)cc1)c1ccccc1OC(F)F` [Example 15, 2-(difluoromethoxy)-N-[4-(5-phenyl-1,3,4-oxadiazol-2-yl)phenyl]benzamide], for which the pIC50 in the data set on HBsAg and in the data set with HBeAg was 5.71 each time. The CC50 at 144 h in data set [1] was over 100000 nM.

Turning to `O=C(Nc1ccc(-c2nnc(-c3ccccc3)o2)cc1)c1cccc(OC(F)(F)F)c1` [Example 16, N-[4-(5-phenyl-1,3,4-oxadiazol-2-yl)phenyl]-3-(trifluoromethoxy)benzamide], the pIC50 in the data set with HBsAg was 5.87; in the data set with HBeAg, 5.54. Moreover, the CC50 at 144 h in data set [1] was over 100000 nM.

Take `O=C(Nc1ccc(-c2nnc(-c3ccccc3)o2)cc1)c1cccc(OC(F)F)c1` [Example 17, 3-(difluoromethoxy)-N-[4-(5-phenyl-1,3,4-oxadiazol-2-yl)phenyl]benzamide]: the pIC50 is 5.84 in the data set on HBsAg and 5.55 with HBeAg. The molecule further registered a CC50 at 144 h in data set [1] of over 100000 nM.

In the case of `N#Cc1ccc(C(=O)Nc2ccc(-c3nnc(-c4ccccc4)o3)cc2)cc1` [Example 18, 4-cyano-N-[4-(5-phenyl-1,3,4-oxadiazol-2-yl)phenyl]benzamide], the figures for the pIC50 with HBsAg and with HBeAg were 5.60 and 5.65, respectively. In data set [1], this molecule came in with a CC50 at 144 h of over 100000 nM.

`O=C(Nc1ccc(-c2nnc(-c3ccccc3)o2)cc1)c1ccncc1` [Example 19, N-[4-(5-phenyl-1,3,4-oxadiazol-2-yl)phenyl]pyridine-4-carboxamide]: the pIC50 with HBsAg was 5.32; with HBeAg, 5.55. This molecule also registered a CC50 at 144 h in data set [1] of over 100000 nM.

On to `O=C(Nc1ccc(-c2nnc(-c3ccccc3)o2)cc1)c1ccnc(Cl)c1` [Example 20, 2-chloro-N-[4-(5-phenyl-1,3,4-oxadiazol-2-yl)phenyl]pyridine-4-carboxamide], for which the results for the pIC50 with HBsAg and with HBeAg were 5.86 and 5.59, respectively. The molecule further gave a CC50 at 144 h in data set [1] of over 100000 nM.

As for `COc1cc(C(=O)Nc2ccc(-c3nnc(-c4ccccc4)o3)cc2)ccn1` [Example 21, 2-methoxy-N-[4-(5-phenyl-1,3,4-oxadiazol-2-yl)phenyl]pyridine-4-carboxamide], the pIC50 was 5.70 in the data set on HBsAg and 5.72 in the data set on HBeAg. The molecule further gave a CC50 at 144 h in data set [1] of over 100000 nM.

In the case of `O=C(Nc1ccc(-c2nnc(-c3ccccc3)o2)cc1)c1cccc(Cl)n1` [Example 22, 6-chloro-N-[4-(5-phenyl-1,3,4-oxadiazol-2-yl)phenyl]pyridine-2-carboxamide], the negative logarithm of the IC50 (pIC50) is 6.02 in the data set on HBsAg and 5.80 in the data set on HBeAg. The molecule further came in with a CC50 at 144 h in data set [1] of over 100000 nM.

`O=C(Nc1ccc(-c2nnc(-c3ccccc3)o2)cc1)c1ccc(Cl)cn1` [Example 23, 5-chloro-N-[4-(5-phenyl-1,3,4-oxadiazol-2-yl)phenyl]pyridine-2-carboxamide]: the pIC50 in the data set on HBsAg was 5.91; in the data set with HBeAg, 5.67. For the same molecule, the CC50 at 144 h in data set [1] is over 100000 nM.

For the molecule `O=C(Nc1ccc(-c2nnc(-c3ccccc3)o2)cc1)c1ccnnc1` [Example 24, N-[4-(5-phenyl-1,3,4-oxadiazol-2-yl)phenyl]pyridazine-4-carboxamide], the results for the pIC50 in the data set on HBsAg and in the data set with HBeAg were 5.92 and 5.80, respectively. Moreover, the CC50 at 144 h in data set [1] was over 100000 nM.

For orientation: pIC50 means the negative decadic logarithm of the IC50, by convention in mol/L. As usually defined, the CC50 is the concentration giving 50% cytotoxicity.
